Results reported in paper PMC3961306, “Comparison of the Cancer Gene Targeting and Biochemical Selectivities of All Targeted Kinase Inhibitors Approved for Clinical Use” (PLoS ONE, 2014).

Experiments:
Experiment in all cases: Kinase profiling in a biochemical assay panel (mobility shift assays and ELISA), %-inhibition at 1 μM; selectivity entropy
[1] = target: panel of more than 300 wild-type and mutant kinases (313 kinase panel) (Homo sapiens, UniProt Q16816)
[2] = target: panel of more than 300 wild-type and mutant kinases (313 kinase panel) (Homo sapiens, UniProt Q15303)
[3] = target: panel of more than 300 wild-type and mutant kinases (313 kinase panel) (Homo sapiens, UniProt P10721)
[4] = target: panel of more than 300 wild-type and mutant kinases (313 kinase panel) (Homo sapiens, UniProt P49761)
[5] = target: T1, panel of more than 300 wild-type and mutant kinases (313 kinase panel) (Homo sapiens, UniProt O00418)
T1 sequence (O00418 1-725): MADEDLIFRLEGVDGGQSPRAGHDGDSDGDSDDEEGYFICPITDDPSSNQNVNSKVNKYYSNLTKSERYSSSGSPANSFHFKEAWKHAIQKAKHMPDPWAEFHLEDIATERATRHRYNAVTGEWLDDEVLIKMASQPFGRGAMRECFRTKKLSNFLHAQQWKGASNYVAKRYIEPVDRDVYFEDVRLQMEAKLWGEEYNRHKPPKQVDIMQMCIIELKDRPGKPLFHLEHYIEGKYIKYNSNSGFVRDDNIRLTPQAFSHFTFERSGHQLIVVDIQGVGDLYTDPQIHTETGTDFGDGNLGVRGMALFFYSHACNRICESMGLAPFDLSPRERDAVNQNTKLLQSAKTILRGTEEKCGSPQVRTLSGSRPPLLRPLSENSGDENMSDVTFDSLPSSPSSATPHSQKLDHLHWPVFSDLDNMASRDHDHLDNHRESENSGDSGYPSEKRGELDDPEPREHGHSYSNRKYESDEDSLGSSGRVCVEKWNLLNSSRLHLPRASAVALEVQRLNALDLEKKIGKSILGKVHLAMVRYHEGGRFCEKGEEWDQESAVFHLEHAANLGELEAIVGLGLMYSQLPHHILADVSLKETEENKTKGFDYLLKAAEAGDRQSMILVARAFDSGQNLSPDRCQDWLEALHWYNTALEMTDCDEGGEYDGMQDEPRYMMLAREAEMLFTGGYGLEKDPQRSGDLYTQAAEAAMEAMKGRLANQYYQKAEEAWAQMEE

[6] = target: panel of more than 300 wild-type and mutant kinases (313 kinase panel) (Homo sapiens, UniProt P11802)
[7] = target: panel of more than 300 wild-type and mutant kinases (313 kinase panel) (Homo sapiens, UniProt Q7KZI7)
[8] = target: panel of more than 300 wild-type and mutant kinases (313 kinase panel) (Homo sapiens, UniProt P17612)
[9] = target: panel of more than 300 wild-type and mutant kinases (313 kinase panel) (Homo sapiens, UniProt P07332)
[10] = target: T2, panel of more than 300 wild-type and mutant kinases (313 kinase panel) (Homo sapiens, UniProt P36888)
T2 sequence (P36888 27-993): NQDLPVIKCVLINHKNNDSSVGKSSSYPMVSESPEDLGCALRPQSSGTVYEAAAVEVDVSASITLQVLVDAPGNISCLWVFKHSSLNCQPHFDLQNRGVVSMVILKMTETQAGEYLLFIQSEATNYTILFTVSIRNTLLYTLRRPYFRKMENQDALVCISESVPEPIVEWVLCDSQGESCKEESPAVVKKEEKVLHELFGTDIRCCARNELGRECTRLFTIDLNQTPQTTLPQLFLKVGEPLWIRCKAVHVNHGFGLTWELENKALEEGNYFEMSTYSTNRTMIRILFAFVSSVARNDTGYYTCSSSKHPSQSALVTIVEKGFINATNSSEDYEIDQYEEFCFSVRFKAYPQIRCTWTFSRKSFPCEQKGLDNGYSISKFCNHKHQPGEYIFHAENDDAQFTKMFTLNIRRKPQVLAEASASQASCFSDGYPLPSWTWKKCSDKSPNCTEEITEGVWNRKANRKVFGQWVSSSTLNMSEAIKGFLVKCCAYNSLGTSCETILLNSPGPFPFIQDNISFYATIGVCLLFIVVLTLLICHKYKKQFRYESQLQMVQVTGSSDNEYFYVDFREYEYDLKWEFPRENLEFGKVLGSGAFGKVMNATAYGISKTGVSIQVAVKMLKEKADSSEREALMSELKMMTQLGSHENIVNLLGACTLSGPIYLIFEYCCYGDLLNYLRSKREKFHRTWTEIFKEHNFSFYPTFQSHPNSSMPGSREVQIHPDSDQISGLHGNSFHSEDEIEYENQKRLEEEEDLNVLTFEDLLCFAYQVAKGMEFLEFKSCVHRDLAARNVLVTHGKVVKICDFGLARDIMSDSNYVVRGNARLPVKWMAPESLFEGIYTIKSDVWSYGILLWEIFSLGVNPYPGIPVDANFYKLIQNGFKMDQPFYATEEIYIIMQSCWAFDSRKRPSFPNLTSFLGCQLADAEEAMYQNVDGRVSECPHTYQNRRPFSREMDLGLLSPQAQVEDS

[11] = kinase CDK4/CycD3, 1 μM compound

panel of more than 300 wild-type and mutant kinases (313 kinase panel) (Homo sapiens, UniProt P49761), sequence (P49761 whole entry, change not shown): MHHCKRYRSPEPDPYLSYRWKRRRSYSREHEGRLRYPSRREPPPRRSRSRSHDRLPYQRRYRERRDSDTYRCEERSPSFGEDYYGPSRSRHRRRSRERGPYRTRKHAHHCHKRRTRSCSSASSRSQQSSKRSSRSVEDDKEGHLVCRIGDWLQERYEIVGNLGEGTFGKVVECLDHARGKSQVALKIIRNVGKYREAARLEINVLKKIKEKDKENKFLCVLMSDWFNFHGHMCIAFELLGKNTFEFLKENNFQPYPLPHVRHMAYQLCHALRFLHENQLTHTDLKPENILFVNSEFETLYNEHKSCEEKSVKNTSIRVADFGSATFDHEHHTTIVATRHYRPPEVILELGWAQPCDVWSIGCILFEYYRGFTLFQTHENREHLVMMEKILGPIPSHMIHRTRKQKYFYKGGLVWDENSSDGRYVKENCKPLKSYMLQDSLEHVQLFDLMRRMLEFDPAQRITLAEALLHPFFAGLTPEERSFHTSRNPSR
panel of more than 300 wild-type and mutant kinases (313 kinase panel) (Homo sapiens, UniProt P10721), sequence (P10721 26-976, change not shown): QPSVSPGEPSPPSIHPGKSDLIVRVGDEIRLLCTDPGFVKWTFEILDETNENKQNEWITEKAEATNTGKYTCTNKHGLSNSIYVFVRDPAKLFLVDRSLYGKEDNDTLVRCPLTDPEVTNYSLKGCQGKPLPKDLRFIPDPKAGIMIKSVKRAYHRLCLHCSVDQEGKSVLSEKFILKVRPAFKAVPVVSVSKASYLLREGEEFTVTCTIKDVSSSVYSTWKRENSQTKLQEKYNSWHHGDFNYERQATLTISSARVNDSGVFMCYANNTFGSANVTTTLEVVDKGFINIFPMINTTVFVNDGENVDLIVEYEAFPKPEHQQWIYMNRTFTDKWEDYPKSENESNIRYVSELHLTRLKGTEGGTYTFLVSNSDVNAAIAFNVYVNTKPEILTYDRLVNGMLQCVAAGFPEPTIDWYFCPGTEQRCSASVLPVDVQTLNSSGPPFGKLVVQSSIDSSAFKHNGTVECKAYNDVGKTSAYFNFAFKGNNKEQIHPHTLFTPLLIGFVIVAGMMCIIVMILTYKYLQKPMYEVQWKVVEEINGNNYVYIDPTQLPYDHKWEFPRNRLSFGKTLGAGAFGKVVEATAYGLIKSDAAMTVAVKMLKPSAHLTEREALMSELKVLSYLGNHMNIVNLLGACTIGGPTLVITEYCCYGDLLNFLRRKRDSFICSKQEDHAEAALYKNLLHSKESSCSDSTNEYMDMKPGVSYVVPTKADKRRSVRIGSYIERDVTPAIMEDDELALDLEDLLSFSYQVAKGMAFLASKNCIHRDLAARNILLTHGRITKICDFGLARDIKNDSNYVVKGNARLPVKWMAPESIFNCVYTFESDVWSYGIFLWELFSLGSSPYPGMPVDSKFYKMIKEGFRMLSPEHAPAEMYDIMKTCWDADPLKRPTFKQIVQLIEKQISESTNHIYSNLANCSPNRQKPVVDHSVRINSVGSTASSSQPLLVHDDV
panel of more than 300 wild-type and mutant kinases (313 kinase panel) (Homo sapiens, UniProt Q15303), sequence (Q15303 26-1308, change not shown): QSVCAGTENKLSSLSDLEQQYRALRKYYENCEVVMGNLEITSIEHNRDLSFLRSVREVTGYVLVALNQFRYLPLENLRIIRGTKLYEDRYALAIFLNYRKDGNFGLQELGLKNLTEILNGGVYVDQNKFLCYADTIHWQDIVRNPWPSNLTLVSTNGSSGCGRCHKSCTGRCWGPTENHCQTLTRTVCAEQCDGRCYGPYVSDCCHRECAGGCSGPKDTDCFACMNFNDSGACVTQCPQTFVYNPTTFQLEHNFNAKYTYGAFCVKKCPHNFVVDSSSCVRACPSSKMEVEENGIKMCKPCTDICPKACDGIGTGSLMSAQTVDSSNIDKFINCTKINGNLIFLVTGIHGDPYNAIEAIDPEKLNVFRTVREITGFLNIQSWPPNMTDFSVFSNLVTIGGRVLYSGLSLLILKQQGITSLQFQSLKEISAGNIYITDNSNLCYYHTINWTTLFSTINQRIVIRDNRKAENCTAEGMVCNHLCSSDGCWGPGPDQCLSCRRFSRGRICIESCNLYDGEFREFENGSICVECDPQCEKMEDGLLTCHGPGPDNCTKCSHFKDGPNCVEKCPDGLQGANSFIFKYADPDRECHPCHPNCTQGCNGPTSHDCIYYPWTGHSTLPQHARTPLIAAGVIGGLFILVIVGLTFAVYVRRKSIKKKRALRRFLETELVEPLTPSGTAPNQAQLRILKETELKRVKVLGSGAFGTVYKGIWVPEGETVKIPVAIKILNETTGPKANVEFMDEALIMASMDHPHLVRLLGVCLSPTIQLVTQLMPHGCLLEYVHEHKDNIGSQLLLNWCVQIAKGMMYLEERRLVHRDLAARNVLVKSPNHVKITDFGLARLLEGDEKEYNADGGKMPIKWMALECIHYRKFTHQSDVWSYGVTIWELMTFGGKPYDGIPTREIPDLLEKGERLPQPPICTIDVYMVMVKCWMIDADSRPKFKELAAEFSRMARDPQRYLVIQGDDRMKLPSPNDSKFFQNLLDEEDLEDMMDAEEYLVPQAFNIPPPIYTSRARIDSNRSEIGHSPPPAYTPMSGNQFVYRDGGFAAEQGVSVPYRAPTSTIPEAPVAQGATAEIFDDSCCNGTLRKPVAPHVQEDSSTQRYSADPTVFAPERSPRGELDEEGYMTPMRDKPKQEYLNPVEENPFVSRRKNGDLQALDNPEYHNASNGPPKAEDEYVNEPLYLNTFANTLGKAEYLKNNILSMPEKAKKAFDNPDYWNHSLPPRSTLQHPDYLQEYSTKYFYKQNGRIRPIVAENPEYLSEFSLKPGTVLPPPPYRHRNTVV
panel of more than 300 wild-type and mutant kinases (313 kinase panel) (Homo sapiens, UniProt P11802), sequence (P11802 whole entry, change not shown): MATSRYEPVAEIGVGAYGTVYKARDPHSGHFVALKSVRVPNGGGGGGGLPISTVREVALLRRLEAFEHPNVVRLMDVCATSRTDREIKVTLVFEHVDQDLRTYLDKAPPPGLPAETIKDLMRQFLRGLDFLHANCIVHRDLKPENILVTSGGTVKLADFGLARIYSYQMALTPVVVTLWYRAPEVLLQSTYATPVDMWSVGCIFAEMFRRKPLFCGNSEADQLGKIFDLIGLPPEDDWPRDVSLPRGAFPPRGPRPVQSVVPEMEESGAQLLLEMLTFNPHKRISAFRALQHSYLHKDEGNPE
panel of more than 300 wild-type and mutant kinases (313 kinase panel) (Homo sapiens, UniProt Q16816), sequence (Q16816 whole entry, change not shown): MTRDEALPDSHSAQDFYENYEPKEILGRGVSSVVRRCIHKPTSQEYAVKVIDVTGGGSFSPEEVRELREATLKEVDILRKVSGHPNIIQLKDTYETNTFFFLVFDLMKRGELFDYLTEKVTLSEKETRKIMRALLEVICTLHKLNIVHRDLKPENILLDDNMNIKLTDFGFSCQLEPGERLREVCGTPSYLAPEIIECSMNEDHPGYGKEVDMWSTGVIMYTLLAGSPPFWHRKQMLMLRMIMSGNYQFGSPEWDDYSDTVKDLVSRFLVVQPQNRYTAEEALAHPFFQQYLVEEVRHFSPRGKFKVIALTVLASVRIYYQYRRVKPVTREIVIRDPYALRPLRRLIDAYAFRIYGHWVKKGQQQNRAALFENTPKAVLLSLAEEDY

Compound | %-inhibition of PHKG1 ([1]; kinase PHKG1, 1 μM) [%] | %-inhibition of HER4 ([2]; kinase HER4, compound at 1 μM) [%] | %-inhibition of KIT ([3]; kinase KIT, compound at 1 μM) [%] | %-inhibition of CLK3 ([4]; kinase CLK3, compound at 1 μM) [%] | %-inhibition of EEF2K ([5]; kinase EEF2K, compound at 1 μM) [%] | %-inhibition, CDK4/CycD3 [6, 11] [%] | %-inhibition of MARK2 ([7]; kinase MARK2, compound at 1 μM) [%] | %-inhibition of PKACα ([8]; kinase PKACα, 1 μM) [%] | %-inhibition of FES ([9]; kinase FES, compound at 1 μM) [%] | %-inhibition of FLT3 ([10]; kinase FLT3, compound at 1 μM) [%] | %-inhibition of PHKG1 ([1]; 1 µM) [%] | %-inhibition of HER4 ([2]; 1 µM) [%] | %-inhibition of KIT ([3]; 1 µM) [%] | %-inhibition of CLK3 ([4]; 1 µM) [%] | %-inhibition of EEF2K ([5]; 1 µM) [%] | %-inhibition of FES ([9]; 1 µM) [%] | %-inhibition, CDK4/CycD3 ([6]; 1 µM) [%] | %-inhibition of MARK2 ([7]; 1 µM) [%] | %-inhibition of PKACα ([8]; 1 µM) [%] | %-inhibition of FLT3 ([10]; 1 µM) [%]
C[C@@H](Oc1cc(-c2cnn(C3CCNCC3)c2)cnc1N)c1c(Cl)ccc(F)c1Cl [crizotinib] | 2.74 | -18 | 16 | -5 | -4.6 | 7 | 26 | -6 |  |  |  |  |  |  |  |  |  |  |  | 
CC(C)(C)c1nc(-c2cccc(NS(=O)(=O)c3c(F)cccc3F)c2F)c(-c2ccnc(N)n2)s1 [dabrafenib] | -0.59 | 23 | 59 | 17 |  |  | 2.85 |  | 2.29 | 41 |  |  |  |  |  |  |  |  |  | 
COc1cc2c(Nc3ccc(Br)cc3F)ncnc2cc1OCC1CCN(C)CC1 [vandetanib] | 68 |  |  | -15 | -10 | -9 | -9 | 1.29 | -3.7 | 90 |  |  |  |  |  |  |  |  |  | 
O=S(=O)(c1cccc2cnccc12)N1CCCNCC1 [fasudil] | 2.6 | -0.227 | -0.648 | -0.753 | -3.43 | -2.33 | 3.21 |  | -3.78 | 22 |  |  |  |  |  |  |  |  |  | 
C#Cc1cccc(Nc2ncnc3cc(OCCOC)c(OCCOC)cc23)c1 [erlotinib] |  |  |  |  |  |  |  |  |  |  | 5 | 97 | 32 | -0.469 | -0.225 | 8.5 | 1.86 | 7 | 4.34 | 
COc1cc2nccc(Oc3ccc(NC(=O)C4(C(=O)Nc5ccc(F)cc5)CC4)cc3)c2cc1OC [cabozantinib] | 53 | 23 | 97 | -1.24 | -4.74 | -5 | -4 | -4.67 | 39 | 91 |  |  |  |  |  |  |  |  |  | 
Cc1ccc(C(=O)Nc2ccc(CN3CCN(C)CC3)c(C(F)(F)F)c2)cc1C#Cc1cnc2cccnn12 [ponatinib] | 5 | 101 |  |  | -4 | 24 |  |  |  | 99 |  |  |  |  |  |  |  |  |  | 
CCCS(=O)(=O)Nc1ccc(F)c(C(=O)c2c[nH]c3ncc(-c4ccc(Cl)cc4)cc23)c1F [vemurafenib] | -0.913 | 11 | 58 | -14 | -5 | -3.26 | -0.167 | -4 | 18 | 10 |  |  |  |  |  |  |  |  |  | 
CCN(CC)CCNC(=O)c1c(C)[nH]c(/C=C2\C(=O)Nc3ccc(F)cc32)c1C [sunitinib] | 95 |  |  |  |  |  |  |  |  |  |  |  |  |  |  |  |  |  |  | 
Cc1cn(-c2cc(NC(=O)c3ccc(C)c(Nc4nccc(-c5cccnc5)n4)c3)cc(C(F)(F)F)c2)cn1 [nilotinib] | -8 |  |  | -10 | 6.34 |  | 0.732 |  | -19 |  |  | 73 | 96 |  |  |  | -4 |  | 3.31 | 60
CS(=O)(=O)CCNCc1ccc(-c2ccc3ncnc(Nc4ccc(OCc5cccc(F)c5)c(Cl)c4)c3c2)o1 [lapatinib] | 4.72 |  |  | 0.469 | -2.58 |  | 10 | 0.663 | 5 | -3.74 |  | 102 | 9 |  |  |  | 1.35 |  |  | 
Cc1nc(Nc2ncc(C(=O)Nc3c(C)cccc3Cl)s2)cc(N2CCN(CCO)CC2)n1 [dasatinib] |  | 103 |  | 0.469 |  | 2.8 |  | 0.736 |  |  |  |  |  |  |  |  |  |  |  | 
Cc1ccc(Nc2nccc(N(C)c3ccc4c(C)n(C)nc4c3)n2)cc1S(N)(=O)=O [pazopanib] | 1.52 | 16 | 95 | 0.791 | -3 | 16 | 8 | 2 |  |  |  |  |  |  |  |  |  |  |  | 
N#CC[C@H](C1CCCC1)n1cc(-c2ncnc3[nH]ccc23)cn1 [ruxolitinib] |  |  | 3 |  | -6 | -1.74 |  |  | 3 |  | 50 | -1.9 |  | -2.14 |  |  |  |  | 48 | 18
COc1cc(Nc2c(C#N)cnc3cc(OCCCN4CCN(C)CC4)c(OC)cc23)c(Cl)cc1Cl [bosutinib] | 49 | 102 | 23 |  | -7 |  |  | 58 |  | 77 |  |  |  |  |  |  |  | 58 |  | 
